Results as given in patent publication US7700623B2, “Arylamidine derivative, salt thereof, and antifungal containing these” (Toyama Chemical Co., Ltd., priority 2004, dated 2010).
Where a name gives a salt, the structure may show the parent alone.

Assays:
[1] = Repeated-dose toxicity test in mice (2), hematological test; format: in vivo; conditions: value when control group is set to 100, male ICR mice
Description: (§1) Six-week old male ICR mice (body weight range: 27.4 to 33.7 g, the number of animals allocated to each group: 5) were used to examine the repeated-dose toxicity. A solution of each test compound was prepared by dissolution in 0.1 mol/L hydrochloric acid. Each compound was subcutaneously administered at a dose of 6.25 or 3.13 mg/kg once a day for 14 days. A sterilized physiological saline was administered to a control group. At the end of the administration period, each mouse was anesthetized with ether. An injection syringe containing a heparin solution (Novo-Heparin Injection 1000, Aventis Pharma K.K.) as an anticoagulant was used for blood collection from abdominal portion of vena cava. A hematological test was carried out for the following items.
(§2) (Hematological Test Items and Determination Methods)
(§3) Red blood cell count (RBC): Two-angle laser flow cytometry
(§4) Reticulocyte count: Flow cytometry after RNA staining

[2] = Repeated-dose toxicity test in mice (1), hematological test; format: in vivo; conditions: value when control group is set to 100; 6.25 mg/kg subcutaneously once a day for 7 days, male ICR mice
Description: as §1, with “weight range: 30.6 to 34.8” for “weight range: 27.4 to 33.7”, “30.6 to 34.8 g, the” for “27.4 to 33.7 g, the”, “dissolution in distilled water. Each compound” for “dissolution in 0.1 mol/L hydrochloric acid. Each compound”, “of 6.25 mg/kg once” for “of 6.25 or 3.13 mg/kg once”, “day for 7 days. A” for “day for 14 days. A”, “portion of the vena cava.” for “portion of vena cava.”
as §2, §3, §4

[3] = Hygroscopicity test (1): storage at relative humidity of 75% for one week; format: physicochemical
Description: The compound of Example 4 and the comparative compound were stored under conditions of room temperature and a relative humidity of 75% or 60° C. and a relative humidity of 75% for one week.

[4] = test system: Candida albicans TIMM1623; assay: Antifungal action: susceptibility testing of fungi by microbroth dilution method; format: cell-based; conditions: Candida albicans TIMM1623, RPMI/MOPS pH 7.0, 35° C., 48 hours, 50% growth inhibition
Description: Susceptibility testing of fungi was carried out using a microbroth dilution method. The medium used in the susceptibility test was RPMI1640 (RPMI/MOPS) adjusted to pH 7.0 employing 0.165 mol/L morpholinepropanesulfonic acid (MOPS) and 1.0 mol/L sodium hydroxide. A test compound was dissolved in sterile water, which was then subjected to two-fold serial dilution using 100 μL of RPMI/MOPS on a 96-well round bottom plate. Candida albicans TIMM1623 cultured overnight at 35° C. on Sabouraud agar medium was suspended in a sterilized physiological saline. The number of cells was counted under a biological microscope; a suspension of inoculum organism 2×10^3 cells/mL) was prepared using RPMI/MOPS, and 100 μL thereof was then dispensed into each well; and a microplate containing a predetermined concentration of the test compound, the medium, and fungal cells was finally prepared. The plate was cultured at 35° C. for 48 hours. After the end of cultivation, absorbance was determined at 630 nm using an automatic spectrophotometer. The lowest test compound concentration at which 50% growth inhibition was observed as compared to growth control where no test compound was added was defined as IC50.

[5] = Vero cell proliferation inhibition test (XTT assay); format: cell-based; conditions: African green monkey, Vero cells, concentration inhibiting cell proliferation by 50%
Description: The cytotoxicity of each compound was evaluated using Vero cells. Each test compound was dissolved in dimethylsulfoxide (DMSO), which was then subjected to serial dilution with 10% FBS-containing E'MEM and added to a 96-well plate. The cells were suspended in 10% FBS-containing E'MEM, inoculated in an amount of 3,000 cells/well (96-well plate), and cultured in a CO2 incubator at 37° C. for 3 days. The degree of growth of Vero cells was evaluated using a 2,3-bis-(2-methoxy-4-nitro-5-sulfophenyl)-5-[(phenylamino)carbonyl]-2H-tetrazolium=inner salt=monosodium salt (XTT) assay. Thus, an XTT solution containing 1 mg/mL XTT and 25 μmol/L phenazine=methosulfate (PMS) was added to each well, which was then incubated in a CO2 incubator for 2 hours, followed by determining the absorbance of the well at 450 nm (reference: 655 nm) using a micro plate reader. The absorbance ratio between the control (no added compound) and each of the wells was calculated, and the concentration (CC50; μg/mL) of compound inhibiting cell proliferation by 50% was computed.

[6] = test system: Trichomonas vaginalis CDC337; assay: Antiprotozoan action; format: cell-based; conditions: 48 h
Description: Trichomonas vaginalis CDC337 was cultured in a Diamond's trypticase-yeast-maltose medium (pH 6.8) containing 8% fetal bovine serum (FBS). The protozoan bodies which had been cultured 37° C. for 2 days were centrifuged (1,500 rpm, 10 minutes) and subjected to medium replacement with a fresh medium before adjustment to 2×10^4 bodies/mL, followed by dispensing them in an amount of 100 μL/well in a micro plate (96-well, flat bottom). The test compound was dissolved using 0.1 mol/L hydrochloric acid, which was then diluted to a predetermined concentration with the medium, followed by dispensing 100 μL/well thereof into a micro plate. The minimal test compound concentration at which the movement of the bodies was not observed after culture 37° C. under anaerobic conditions for 2 days was defined as MIC.

[7] = Hygroscopicity test (3): storage at 60° C. and relative humidity of 100% for one week; format: physicochemical; conditions: relative humidity of 100%
Description: The compound of Example 10 and the comparative compound were stored under conditions of 60° C. and a relative humidity of 100% for one week. As a result, the comparative compound deliquesced.

[8] = test system: Candida albicans TIMM1623; assay: Mouse Candida infection model test (oral administration); format: in vivo; conditions: 1 mg/kg orally for 7 days from 2 hours after infection, cyclophosphamide-compromised mice, observed 21 days after infection
Description: Candida albicans TIMM1623 on a SDA plate, which had been cultured overnight at 35° C. was suspended in a sterilized physiological saline, which was then diluted to prepare a suspension of inoculum organism. To make mice in a transiently compromised state, cyclophosphamide was intraperitoneally administered at 200 mg/kg 4 days before infection and at 100 mg/kg the next day after infection. Into the tail vein of mice was inoculated 0.2 mL of the prepared solution of inoculum Candida albicans TIMM1623 to induce infection (about 3×10^4 CFU/mouse). The test compound was suspended in 0.5% methylcellulose and orally administered at 1 mg/kg of mouse body weight. The treatment was started from 2 hours after infection and carried out for 7 days.

[9] = 3.13 mg/kg subcutaneously once a day for 14 days

N=C(N)c1ccc(OCCCC2CCN(CCCOc3ccc(C(=N)N)cc3)CC2)cc1 [Example 3, 4-{3-[4-(3-{4-[amino(imino)methyl]phenoxy}propyl)-1-piperidinyl]propoxy}benzamidine]
Red blood cell count (RBC) [1, 9]: 96.4 | Reticulocyte count (Reticulocyte) [1, 9]: 93.5 | Red blood cell count (RBC) ([1]; 6.25 mg/kg subcutaneously once a day for 14 days): 98.7

N=C(N)c1ccc(OCCCC2CCN(CCCOc3ccc(C(=N)N)cc3)CC2)cc1 [Example 4, 4-{3-[4-(3-{4-[amino(imino)methyl]phenoxy}propyl)-1-piperidinyl]propoxy}benzamidine hydrochloride]
Red blood cell count (RBC) [2]: 94 | appearance after storage ([3]; 60° C.): powder without any change in the appearance | appearance after storage ([3]; room temperature): powder without any change in the appearance | IC50 [4]: ≤ 0.0039 µg/mL | CC50 at 3 days [5]: 25 µg/mL

N=C(N)c1ccc(OCCCC2CCN(CCCOc3ccc(C(=N)N)cc3)CC2)cc1 [Example 10, 4-{3-[4-(3-{4-[amino(imino)methyl]phenoxy}propyl)-1-piperidinyl]propoxy}benzamidine trihydrochloride pentahydrate]
MIC [6]: 16 µg/mL | deliquescence after storage [7]: did not deliquesce

NC(=NO)c1ccc(OCCCC2CCN(CCCOc3ccc(C(N)=NO)cc3)CC2)cc1 [Example 47, 4-{3-[4-(3-{4-[amino(hydroxyimino)methyl]phenoxy}propyl)-1-piperidinyl]propoxy}benzamide=oxime hydrochloride]
mice survived [8]: 80%
